Columns and labels:
[1] = (§1) Cytotoxicity against human HEL 299 cells assessed as cell viability at 10 uM incubated for 168 hrs by MTS-based tetrazolium reduction assay relative to control; conditions: HEL 299 cells, read-out: Activity
[2] = target: T1, Tripartite terminase subunit 3 (Human betaherpesvirus 5) (UniProt P16732); experiment: Inhibition of human cytomegalovirus pUL89 endonuclease activity using 60 bp dsDNA substrate at 20 uM incubated for 30 mins by ELISA-based biochemical assay relative to control
T1 sequence (whole entry): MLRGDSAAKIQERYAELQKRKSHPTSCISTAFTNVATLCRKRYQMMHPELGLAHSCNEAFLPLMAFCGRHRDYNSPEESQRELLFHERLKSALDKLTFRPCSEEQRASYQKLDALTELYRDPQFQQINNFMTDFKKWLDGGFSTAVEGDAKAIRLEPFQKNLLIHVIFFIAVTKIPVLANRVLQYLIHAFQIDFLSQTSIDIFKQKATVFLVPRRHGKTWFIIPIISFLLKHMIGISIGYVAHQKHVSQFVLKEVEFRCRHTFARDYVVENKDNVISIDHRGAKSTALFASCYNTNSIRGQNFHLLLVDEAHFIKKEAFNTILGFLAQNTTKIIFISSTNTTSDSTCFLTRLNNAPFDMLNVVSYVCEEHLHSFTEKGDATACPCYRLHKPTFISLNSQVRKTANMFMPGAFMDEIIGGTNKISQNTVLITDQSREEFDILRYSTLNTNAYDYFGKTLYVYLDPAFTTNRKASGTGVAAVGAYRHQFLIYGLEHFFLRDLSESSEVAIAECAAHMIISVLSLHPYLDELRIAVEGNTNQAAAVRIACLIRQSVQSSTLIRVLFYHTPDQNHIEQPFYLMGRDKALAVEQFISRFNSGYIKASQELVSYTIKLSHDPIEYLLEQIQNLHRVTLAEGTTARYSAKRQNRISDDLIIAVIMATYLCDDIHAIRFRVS

[3] = tested on: Human betaherpesvirus 5; assay type: functional; conditions: Human betaherpesvirus 5, HEL 299, time 168 hrs
[4] = Apparent permeability of the compound incubated for 5 hrs by LC-MS/MS analysis based PAMPA method; assay type: ADME; conditions: for Papp: pampa, 5 h
[5] = tested on: Human betaherpesvirus 5; assay type: functional, cell-based; conditions: Human betaherpesvirus 5, HEL 299, 168 h
[6] = tested on: HEL 299; conditions: human, hel 299, 168 h
[7] = target: T2, Tripartite terminase subunit 3 (Human betaherpesvirus 5, UniProt P16732)
T2 sequence (P16732 whole entry): T1 sequence (whole entry)
Description: Inhibition of human cytomegalovirus pUL89 endonuclease activity using 60 bp dsDNA substrate incubated for 30 mins by ELISA-based biochemical assay

[8] = target: T1, Tripartite terminase subunit 3 (Human betaherpesvirus 5); conditions: dose 20.0 µM
[9] = tested on: HEL 299; experiment: as §1; conditions: hel 299, 168 h, 10 µM

Row | SMILES | viability at 168 h, 10 µM [1] | inhibition [2] | inhibition at 10 µM [3] | further results
1 | Cn1c(Sc2ccccc2Br)cc(=O)n(O)c1=O | 117% |  |  | 
2 | CCn1c(Sc2ccc(Cl)cc2)cc(=O)n(O)c1=O | 40% | 76% | 98% | 
3 | COc1ccc(-c2ccc(Sc3cc(=O)n(O)c(=O)[nH]3)cc2)cc1 | 94% | 22% | 80% | Papp at 5 h ([4]; PAMPA): 1.1 ×10⁻⁶ cm/s; EC50 [5]: 7.2 µM; CC50 [6]: 20.3 µM
4 | O=c1cc(Sc2ccc(-c3ccc(Cl)cc3)cc2)[nH]c(=O)n1O | 102% | 11% | 82% | 
5 | CCn1c(Sc2ccccc2Br)cc(=O)n(O)c1=O | 16% | 64% | 100% | 
6 | CCn1c(Sc2cccc(F)c2)cc(=O)n(O)c1=O | 126% | 34% | 12% | Papp [4]: 3.4 10^-6 cm/s; IC50 [7]: 23 µM; ΔTm [8]: 0.86 °C
7 | Cn1c(Sc2ccc(C(F)(F)F)cc2)cc(=O)n(O)c1=O | 107% |  | 50% | 
8 | O=c1cc(Sc2ccc(-c3ccc(F)cc3)cc2)[nH]c(=O)n1O | 99% | 19% | 79% | 
9 | O=C(O)c1cn(Cc2ccc(Cl)c(F)c2)cc(O)c1=O |  |  |  | ΔTm [8]: 2.4 °C
10 | O=c1cc(Sc2ccc(O)cc2)[nH]c(=O)n1O | 118% | 27% | 1% | 
11 | CCn1c(Sc2cccc(Cl)c2)cc(=O)n(O)c1=O | 1.3% | 59% | 101% | Papp [4]: 5.1 10^-6 cm/s; IC50 [7]: 5.7 µM; ΔTm [8]: 0.74 °C
12 | CCc1ccccc1Sc1cc(=O)n(O)c(=O)n1C | 108% |  | 87% | Papp [4]: 5.8 10^-6 cm/s
13 | CCn1c(Sc2ccc(Br)cc2)cc(=O)n(O)c1=O | 16% | 66% | 100% | 
14 | O=c1cc(Sc2cccc(-c3ccc(Cl)cc3)c2)[nH]c(=O)n1O | 100% |  | 81% | 
15 | O=c1cc(Sc2ccc(F)cc2)[nH]c(=O)n1O | 118% | 54% | -2.3% | 
16 | COc1cccc(Sc2cc(=O)n(O)c(=O)n2C)c1 | 135% |  | 91% | Papp [4]: 2.4 10^-6 cm/s
17 | Cn1c(Sc2cccc(Cl)c2)cc(=O)n(O)c1=O | 117% | 37% | 74% | EC50 [5]: 4.7 µM; CC50 [6]: 23.1 µM
18 | O=c1cc(Sc2cccc(-c3ccc(F)cc3)c2)[nH]c(=O)n1O | 100% | 10% | 19% | 
19 | O=c1cc(Sc2cccc(Br)c2)[nH]c(=O)n1O | 123% | 16% | -6% | 
20 | O=c1cc(Sc2ccccc2)[nH]c(=O)n1O | 108% | 30% | -16% | 
21 | O=c1cc(Sc2cccc(-c3ccc(C(F)(F)F)cc3)c2)[nH]c(=O)n1O | 110% | 22% | 70% | 
22 | Cc1ccc(-c2ccc(Nc3cc(=O)n(O)c(=O)n3C)cc2)cc1 |  |  |  | IC50 [7]: 3.3 µM; ΔTm [8]: -2.8 °C
23 | Cn1c(Sc2ccccc2)cc(=O)n(O)c1=O | 115% | 65% | 21% | 

Row | SMILES | viability at 168 h, 10 µM [1] | inhibition [2] | inhibition at 10 µM [3] | further results
24 | CCn1c(Sc2ccccc2F)cc(=O)n(O)c1=O |  | 75% | -0.7% | Activity [9]: 124%
25 | O=c1cc(Sc2ccc(-c3ccc(C(F)(F)F)cc3)cc2)[nH]c(=O)n1O | 107% | 12% | 84% | 
26 | O=c1cc(Sc2cccc(-c3cccc(C(F)(F)F)c3)c2)[nH]c(=O)n1O | 118% | 20% | 33% | 
27 | Cn1c(Sc2ccc(F)cc2)cc(=O)n(O)c1=O | 117% | 90% | 0% | Papp [4]: 3 10^-6 cm/s; IC50 [7]: 12 µM; ΔTm [8]: 0.86 °C
28 | O=c1cc(Sc2ccc(C(F)(F)F)cc2)[nH]c(=O)n1O | 119% | 16% | -9% | 
29 | O=c1cc(Sc2cccc(F)c2)[nH]c(=O)n1O |  | 40% | 83% | Activity [9]: 65%
30 | CCc1ccc(Sc2cc(=O)n(O)c(=O)n2C)cc1 | 121% | 67% | 21% | Papp [4]: 6.6 10^-6 cm/s; IC50 [7]: 11.8 µM; ΔTm [8]: 0.29 °C
31 | Cn1c(Sc2ccc(Br)cc2)cc(=O)n(O)c1=O | 113% |  | 57% | 
32 | Cn1c(Sc2ccc(Cl)cc2)cc(=O)n(O)c1=O | 132% |  | 35% | Papp [4]: 4.5 10^-6 cm/s
33 | Cn1c(Sc2cccc(Br)c2)cc(=O)n(O)c1=O | 14% |  | 100% | IC50 [7]: 6.5 µM; ΔTm [8]: 0.76 °C
34 | CCn1c(Sc2ccc(F)cc2)cc(=O)n(O)c1=O | 114% |  | 67% | Papp [4]: 4.1 10^-6 cm/s
35 | Cn1c(Sc2cccc(C(F)(F)F)c2)cc(=O)n(O)c1=O | 99% |  | 68% | 
36 | O=c1cc(Sc2ccc(Br)cc2)[nH]c(=O)n1O | 129% | 14% | 12% | 
37 | COc1cccc(Sc2cc(=O)n(O)c(=O)[nH]2)c1 | 114% | 92% | -13% | Papp [4]: 0.21 10^-6 cm/s; IC50 [7]: 1.9 µM; ΔTm [8]: 1.8 °C
38 | O=c1cc(Sc2ccccc2Br)[nH]c(=O)n1O | 101% | 21% | -14% | 
39 | Cn1c(Sc2cccc(F)c2)cc(=O)n(O)c1=O | 125% | 37% | -3.8% | Papp [4]: 2.5 10^-6 cm/s; IC50 [7]: 24 µM; ΔTm [8]: 0.56 °C
40 | COc1ccc(-c2cccc(Sc3cc(=O)n(O)c(=O)[nH]3)c2)cc1F | 106% | 16% | -11% | 
41 | Cn1c(Sc2cccc3ccccc23)cc(=O)n(O)c1=O | 111% |  | 98% | Papp [4]: 5.1 10^-6 cm/s
42 | Cc1ccc(-c2cccc(Nc3cc(=O)n(O)c(=O)[nH]3)c2)c(C)c1 |  |  |  | IC50 [7]: 3.5 µM; ΔTm [8]: -2.2 °C
43 | Nc1nc(O)c2ncn(COC(CO)CO)c2n1 [GANCICLOVIR] |  |  |  | CC50 [6]: > 50 µM
44 | CCn1c(Sc2cccc(Br)c2)cc(=O)n(O)c1=O | 7% | 71% | 100% | 
45 | COc1cccc(-c2ccc(Sc3cc(=O)n(O)c(=O)[nH]3)cc2)c1 | 107% | 11% | 71% | 
46 | O=c1cc(Sc2ccc([N+](=O)[O-])cc2)[nH]c(=O)n1O | 115% | 58% | -5.1% | Papp [4]: 0.017 10^-6 cm/s; IC50 [7]: 3.6 µM; ΔTm [8]: 2.8 °C

Source: ChEMBL document CHEMBL4823278, “Metal binding 6-arylthio-3-hydroxypyrimidine-2,4-diones inhibited human cytomegalovirus by targeting the pUL89 endonuclease of the terminase complex” (Eur J Med Chem, 2021)
